According to patent US20260193293A1, “PEPTIDES CAPABLE OF INHIBITING PROTEIN-PROTEIN INTERACTIONS AT GABAB1A SUBUNIT AND USES THEREOF” (UNIVERSITY OF COPENHAGEN, priority 2022, published 2026):
Like-named read-outs stand apart in the source and are kept apart here. Blank lines part the entries; values can stand above or below the compound they belong to. Non-standard residues stand in square brackets, D forms with d. Residues, ends and D or L forms follow the SMILES beside them. 1Nal = N[C@@H](Cc1cccc2ccccc12)C(=O)O; 2Nal = N[C@@H](Cc1ccc2ccccc2c1)C(=O)O; NMeR = CN[C@@H](CCCNC(=N)N)C(=O)O; NMeF = CN[C@@H](Cc1ccccc1)C(=O)O; NMeD = CN[C@@H](CC(=O)O)C(=O)O; Sar = CNCC(=O)O

Target: Sushi domains (SD1/2) protein
Assay: Fluorescence polarization (FP) competition assay with AJAP-1probe, calculated Ki
Assay type: binding
Conditions: read-out: Ki (nM) mean ± SEM
Procedure, shortened: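 Competition against 25 nM TAMRA-labelled peptide probe binding SD1/2, in PBS pH 7.4 with 1% BSA at rt, read at 530/580 nm. IC50 from sigmoidal dose-response fits, at least triplicate; Ki calculated from IC50 using probe Kd from saturation binding.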

[1] = Table 6, elongation and truncation scan of PIANP binding epitope
[2] = Table 8, Ala-, D-amino acids and N-methylation scans of AJAP-1WT
[3] = Table 7, Ala-, D-amino acids and N-methylation scans of APPWT
[4] = Table 10, deep mutational scanning validation variants of APPWT
[5] = Table 5, elongation and truncation scan of AJAP-1 binding epitope
[6] = Table 12, deep mutational scanning validation variants of PIANPWT

Structure (SMILES): CC[C@H](C)[C@H](NC(=O)[C@H](C)NC(=O)[C@H](Cc1c[nH]c2ccccc12)NC(=O)[C@@H]1CCCN1C(C)=O)C(=O)N[C@H](C(=O)N[C@@H](Cc1c[nH]c2ccccc12)C(=O)NCC(=O)N1CCC[C@H]1C(=O)N[C@H](C(=O)N[C@H](C(=O)N[C@@H](CO)C(=O)N[C@@H](CCCNC(=N)N)C(=O)N[C@@H](CCC(=O)O)C(N)=O)C(C)C)[C@@H](C)O)C(C)C (Ac-PWAIVWGPTVSRE-NH2)
Ki [1]: 650 ± 9 nM

Structure (SMILES): CC(=O)N[C@@H](CCC(=O)O)C(=O)N[C@@H](CC(=O)O)C(=O)N[C@@H](CC(=O)O)C(=O)N[C@@H](CO)C(=O)N[C@@H](Cc1ccccc1)C(=O)N[C@H](C(=O)N[C@@H](Cc1c[nH]c2ccccc12)C(=O)N[C@@H](Cc1c[nH]c2ccccc12)C(=O)NCC(=O)NCC(=O)N[C@@H](C)C(=O)N[C@@H](CC(=O)O)C(=O)N[C@H](C(=O)N[C@@H](CC(=O)O)C(N)=O)[C@@H](C)O)C(C)C (Ac-EDDSFVWWGGADTD-NH2)
Ki [4]: 142 ± 6 nM

Structure (SMILES): CC[C@H](C)[C@H](NC(=O)[C@H](CC(=O)O)NC(=O)[C@H](CC(=O)O)NC(=O)[C@H](Cc1ccc(O)cc1)NC(=O)[C@H](CC(=O)O)NC(=O)[C@H](CC(=O)O)NC(=O)[C@H](CO)NC(=O)[C@H](CC(=O)O)NC(=O)[C@H](CCC(=O)O)NC(=O)[C@H](Cc1ccc2ccccc2c1)NC(=O)[C@H](CCCNC(=N)N)NC(=O)[C@H](CCCNC(=N)N)NC(=O)[C@H](CCCNC(=N)N)NC(=O)[C@H](CCCNC(=N)N)NC(C)=O)C(=O)N[C@@H](CC(=O)O)C(=O)N[C@@H](CC(=O)O)C(=O)N[C@@H](CC(=O)O)C(=O)N[C@@H](Cc1c[nH]c2ccccc12)C(N)=O [reference compound] (Ac-RRRR[2Nal]EDSDDYDDIDDDW-NH2)
Ki (Table 14, CPPs tagged peptides): 143000 ± 2500 nM

Structure (SMILES): CC[C@H](C)[C@H](NC(C)=O)C(=O)N[C@H](C(=O)N[C@@H](Cc1c[nH]c2ccccc12)C(=O)NCC(=O)N1CCC[C@H]1C(=O)N[C@H](C(=O)N[C@H](C(=O)N[C@@H](CO)C(=O)N[C@@H](CCCNC(=N)N)C(=O)N[C@@H](CCC(=O)O)C(=O)N[C@@H](CC(=O)O)C(=O)NCC(N)=O)C(C)C)[C@@H](C)O)C(C)C (Ac-IVWGPTVSREDG-NH2)
Ki [1]: 15700 ± 210 nM

Structure (SMILES): CC[C@H](C)[C@H](NC(=O)[C@H](Cc1ccccc1)NC(C)=O)C(=O)N[C@@H](C)C(=O)N[C@@H](Cc1c[nH]c2ccccc12)C(=O)NCC(=O)N1CCC[C@H]1C(=O)N[C@H](C(=O)NCC(=O)N[C@@H](CC(=O)O)C(=O)N[C@@H](CCC(=O)O)C(=O)N[C@@H](CC(=O)O)C(N)=O)[C@@H](C)O [FIAWGPTGDED] (Ac-FIAWGPTGDED-NH2)
Ki [5]: 118 ± 1 nM

Structure (SMILES): CC(=O)N[C@@H](C)C(=O)N[C@@H](CC(=O)O)C(=O)N[C@@H](C)C(=O)N[C@@H](CCC(=O)O)C(=O)N[C@@H](CCC(=O)O)C(=O)N[C@@H](CC(=O)O)C(=O)N[C@@H](CC(=O)O)C(=O)N[C@@H](CO)C(=O)N[C@@H](CC(=O)O)C(=O)N[C@H](C(=O)N[C@@H](Cc1c[nH]c2ccccc12)C(=O)N[C@@H](Cc1c[nH]c2ccccc12)C(=O)NCC(=O)NCC(=O)N[C@@H](C)C(=O)N[C@@H](CC(=O)O)C(=O)N[C@H](C(=O)N[C@@H](CC(=O)O)C(=O)N[C@@H](Cc1ccc(O)cc1)C(=O)N[C@@H](C)C(=O)N[C@@H](CC(=O)O)C(N)=O)[C@@H](C)O)C(C)C (Ac-ADAEEDDSDVWWGGADTDYAD-NH2)
Ki (Table 4, truncation and elongation scans of APP epitope): 500 ± 16 nM

Structure (SMILES): CC(=O)N[C@@H](CCC(=O)O)C(=O)N[C@@H](CC(=O)O)C(=O)N[C@@H](CC(=O)O)C(=O)N[C@@H](CO)C(=O)N[C@@H](CC(=O)O)C(=O)N[C@H](C(=O)N[C@@H](Cc1c[nH]c2ccccc12)C(=O)N[C@@H](Cc1c[nH]c2ccccc12)C(=O)NCC(=O)NCC(=O)N[C@@H](C)C(=O)N[C@@H](CC(=O)O)C(=O)N[C@H](C(=O)N(C)[C@@H](CC(=O)O)C(N)=O)[C@@H](C)O)C(C)C (Ac-EDDSDVWWGGADT[NMeD]-NH2)
Ki [3]: 565 ± 23 nM

Structure (SMILES): CC[C@H](C)[C@H](NC(=O)[C@H](Cc1ccccc1)NC(=O)[C@H](Cc1c[nH]c2ccccc12)NC(=O)[C@@H]1CCCN1C(C)=O)C(=O)N[C@H](C(=O)N[C@@H](Cc1c[nH]c2ccccc12)C(=O)NCC(=O)N1CCC[C@H]1C(=O)N[C@H](C(=O)N[C@H](C(=O)N[C@@H](CO)C(=O)N[C@@H](CC(=O)O)C(=O)N[C@@H](CCC(=O)O)C(=O)N[C@@H](CC(=O)O)C(N)=O)C(C)C)[C@@H](C)O)C(C)C [PWFIVWGPTVSDED] (Ac-PWFIVWGPTVSDED-NH2)
Ki [6]: 192 ± 4 nM

Structure (SMILES): CC(=O)N[C@@H](CCC(=O)O)C(=O)N[C@@H](CC(=O)O)C(=O)N[C@@H](CC(=O)O)C(=O)N[C@@H](CO)C(=O)N[C@@H](CC(=O)O)C(=O)N[C@H](C(=O)N[C@@H](Cc1c[nH]c2ccccc12)C(=O)N[C@@H](Cc1c[nH]c2ccccc12)C(=O)N[C@@H](Cc1ccc(O)cc1)C(=O)N(C)CC(=O)N[C@@H](C)C(=O)N[C@@H](CC(=O)O)C(=O)N[C@H](C(=O)N[C@@H](CC(=O)O)C(N)=O)[C@@H](C)O)C(C)C (Ac-EDDSDVWWY[Sar]ADTD-NH2)
Ki (Table 13, peptides for affinity maturation): 201 ± 6 nM

Structure (SMILES): CC[C@H](C)[C@H](NC(=O)[C@H](C)NC(=O)[C@H](Cc1c[nH]c2ccccc12)NC(=O)[C@@H]1CCCN1C(C)=O)C(=O)N[C@H](C(=O)N[C@@H](Cc1c[nH]c2ccccc12)C(=O)NCC(=O)N1CCC[C@H]1C(=O)N[C@H](C(=O)N[C@H](C(=O)N[C@@H](CC(=O)O)C(=O)N[C@@H](CCCNC(=N)N)C(=O)N[C@@H](CCC(=O)O)C(=O)N[C@@H](CC(=O)O)C(N)=O)C(C)C)[C@@H](C)O)C(C)C [PWAIVWGPTVDRED] (Ac-PWAIVWGPTVDRED-NH2)
Ki [6]: 379 ± 9 nM

Structure (SMILES): CC[C@H](C)[C@H](NC(=O)[C@H](C)NC(=O)[C@H](Cc1c[nH]c2ccccc12)NC(=O)[C@@H]1CCCN1C(C)=O)C(=O)N[C@H](C(=O)N[C@@H](Cc1c[nH]c2ccccc12)C(=O)NCC(=O)N1CCC[C@H]1C(=O)N[C@H](C(=O)N[C@H](C(=O)N[C@@H](CO)C(=O)N(C)[C@@H](CCCNC(=N)N)C(=O)N[C@@H](CCC(=O)O)C(=O)N[C@@H](CC(=O)O)C(N)=O)C(C)C)[C@@H](C)O)C(C)C (Ac-PWAIVWGPTVS[NMeR]ED-NH2)
Ki (Table 9, Ala-, D-amino acids and N-methylation scans of PIANPWT): 502 ± 15 nM

Structure (SMILES): CC(=O)N[C@@H](CCC(=O)O)C(=O)N[C@@H](CC(=O)O)C(=O)N[C@@H](CC(=O)O)C(=O)N[C@@H](CO)C(=O)N[C@@H](CC(=O)O)C(=O)N[C@H](C(=O)N[C@@H](Cc1c[nH]c2ccccc12)C(=O)N[C@@H](Cc1c[nH]c2ccccc12)C(=O)N[C@@H](Cc1c[nH]cn1)C(=O)NCC(=O)N[C@@H](C)C(=O)N[C@@H](CC(=O)O)C(=O)N[C@H](C(=O)N[C@@H](CC(=O)O)C(N)=O)[C@@H](C)O)C(C)C (Ac-EDDSDVWWHGADTD-NH2)
Ki [4]: 270 ± 4 nM

Results, then the compound that gave them:

Ki [2]: 132 ± 5 nM
Structure (SMILES): CC[C@H](C)[C@H](NC(=O)[C@H](Cc1ccccc1)NC(=O)[C@H](CCC(=O)O)NC(=O)[C@@H](NC(=O)[C@H](CCC(=O)O)NC(C)=O)[C@@H](C)O)C(=O)N[C@@H](C)C(=O)N[C@@H](Cc1c[nH]c2ccccc12)C(=O)NCC(=O)N1CCC[C@H]1C(=O)N[C@H](C(=O)N(C)CC(=O)N[C@@H](CC(=O)O)C(=O)N[C@@H](CCC(=O)O)C(=O)N[C@@H](CC(=O)O)C(N)=O)[C@@H](C)O (Ac-ETEFIAWGPT[Sar]DED-NH2)

Ki [3]: 660 ± 21 nM
Structure (SMILES): CC(=O)N[C@@H](CCC(=O)O)C(=O)N[C@@H](CC(=O)O)C(=O)N[C@@H](CC(=O)O)C(=O)N[C@@H](C)C(=O)N[C@@H](CC(=O)O)C(=O)N[C@H](C(=O)N[C@@H](Cc1c[nH]c2ccccc12)C(=O)N[C@@H](Cc1c[nH]c2ccccc12)C(=O)NCC(=O)NCC(=O)N[C@@H](C)C(=O)N[C@@H](CC(=O)O)C(=O)N[C@H](C(=O)N[C@@H](CC(=O)O)C(N)=O)[C@@H](C)O)C(C)C (Ac-EDDADVWWGGADTD-NH2)

Ki (Table 16, ncAAs incorporated peptides): 499 ± 17 nM
Structure (SMILES): CC(=O)N[C@@H](CCC(=O)O)C(=O)N[C@@H](CC(=O)O)C(=O)N[C@@H](CC(=O)O)C(=O)N[C@@H](CO)C(=O)N[C@@H](CC(=O)O)C(=O)N[C@H](C(=O)N[C@@H](Cc1c[nH]c2ccccc12)C(=O)N[C@@H](Cc1cccc2ccccc12)C(=O)NCC(=O)NCC(=O)N[C@@H](C)C(=O)N[C@@H](CC(=O)O)C(=O)N[C@H](C(=O)N[C@@H](CC(=O)O)C(N)=O)[C@@H](C)O)C(C)C [EDDSDVW(1Nala)GGADTD] (Ac-EDDSDVW[1Nal]GGADTD-NH2)

Ki [2]: 252 ± 5 nM
Structure (SMILES): CC[C@H](C)[C@H](NC(=O)[C@H](Cc1ccccc1)N(C)C(=O)[C@H](CCC(=O)O)NC(=O)[C@@H](NC(=O)[C@H](CCC(=O)O)NC(C)=O)[C@@H](C)O)C(=O)N[C@@H](C)C(=O)N[C@@H](Cc1c[nH]c2ccccc12)C(=O)NCC(=O)N1CCC[C@H]1C(=O)N[C@H](C(=O)NCC(=O)N[C@@H](CC(=O)O)C(=O)N[C@@H](CCC(=O)O)C(=O)N[C@@H](CC(=O)O)C(N)=O)[C@@H](C)O [ETE(N-Me-F)IAWGPTGDED] (Ac-ETE[NMeF]IAWGPTGDED-NH2)

Ki [5]: 36 ± 1.7 nM
Structure (SMILES): CC[C@H](C)[C@H](NC(=O)[C@H](Cc1ccccc1)NC(=O)[C@H](CCC(=O)O)NC(=O)[C@@H](NC(=O)[C@H](CCC(=O)O)NC(=O)[C@@H](NC(C)=O)[C@@H](C)O)[C@@H](C)O)C(=O)N[C@@H](C)C(=O)N[C@@H](Cc1c[nH]c2ccccc12)C(=O)NCC(=O)N1CCC[C@H]1C(=O)N[C@H](C(=O)NCC(=O)N[C@@H](CC(=O)O)C(=O)N[C@@H](CCC(=O)O)C(=O)N[C@@H](CC(=O)O)C(=O)N[C@@H](C)C(N)=O)[C@@H](C)O (Ac-TETEFIAWGPTGDEDA-NH2)

Ki (Table 3, SPOT hit validation and previously reported peptides): 1530 ± 46 nM
Structure (SMILES): CC(=O)N[C@@H](C)C(=O)N[C@@H](CC(=O)O)C(=O)N[C@@H](C)C(=O)N[C@@H](CCC(=O)O)C(=O)N[C@@H](CCC(=O)O)C(=O)N[C@@H](CC(=O)O)C(=O)N[C@@H](CC(=O)O)C(=O)N[C@@H](CO)C(=O)N[C@@H](CC(=O)O)C(=O)N[C@H](C(=O)N[C@@H](Cc1c[nH]c2ccccc12)C(=O)N[C@@H](Cc1c[nH]c2ccccc12)C(=O)NCC(=O)NCC(=O)N[C@@H](C)C(N)=O)C(C)C (Ac-ADAEEDDSDVWWGGA-NH2)
